Source: US7297700B2, “Bicycloheteroaryl compounds as P2X7 modulators and uses thereof” (Renovis, Inc., priority 2005, dated 2007)

These compounds were tested on IL-1β release from THP-1 cells (assay: IL-1β Release Assay (Alternate Method), THP-1 cells). Conditions: Homo sapiens, THP-1, read-out: IL-1β % inhibition.
Type: cell-based, human
Summary of the method: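 THP-1 cells differentiated 16 h with 100 ng/mL LPS plus 100 ng/mL IFN-γ, reprimed 2 h with 100 ng/mL LPS, pretreated 30 min with compound, then challenged 45 min with 250 uM BzATP (final). Supernatant IL-1β quantified by ELISA; percent inhibition from background-adjusted levels versus untreated cells.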

Row | Compound | inhibition at 0.3 µM [%]
1 | O=C(Nc1ncnc2c1CCN(S(=O)(=O)c1ccccc1)C2)C12CC3CC(CC(C3)C1)C2 [Compound 481] | 25 to 50

Same assay, conditions: at 0.3 μM; THP-1 cells, BzATP-stimulated

Row | Compound | IL-1β % inhibition
2 | O=C(c1cc(C(F)(F)F)ccc1Cl)N1CCc2c(ncnc2NC(=O)C23CC4CC(CC(C4)C2)C3)C1 [Compound 443] | ++ (compound exhibited 25-50% inhibition at 0.3 μM)
3 | O=C(c1c(F)cccc1Cl)N1CCc2c(ncnc2NC(=O)C23CC4CC(CC(C4)C2)C3)C1 [Compound 444] | + (compound exhibited 0-25% inhibition at 0.3 μM)
4 | O=C(c1cccnc1Oc1ccccc1)N1CCc2c(ncnc2NC(=O)C23CC4CC(CC(C4)C2)C3)C1 [Compound 446] | ++ (compound exhibited 25-50% inhibition at 0.3 μM)
5 | O=C(c1ccc(F)cc1F)N1CCc2c(ncnc2NC(=O)C23CC4CC(CC(C4)C2)C3)C1 [Compound 449] | ++ (compound exhibited 25-50% inhibition at 0.3 μM)
6 | Cc1ccccc1C(=O)N1CCc2c(ncnc2NC(=O)C23CC4CC(CC(C4)C2)C3)C1 [Compound 450] | + (compound exhibited 0-25% inhibition at 0.3 μM)
7 | O=C(c1cc(F)ccc1F)N1CCc2c(ncnc2NC(=O)C23CC4CC(CC(C4)C2)C3)C1 [Compound 451] | + (compound exhibited 0-25% inhibition at 0.3 μM)
8 | O=C(c1ccccc1F)N1CCc2c(ncnc2NC(=O)C23CC4CC(CC(C4)C2)C3)C1 [Compound 452] | ++ (compound exhibited 25-50% inhibition at 0.3 μM)
9 | O=C(c1ccc(Cl)nc1)N1CCc2c(ncnc2NC(=O)C23CC4CC(CC(C4)C2)C3)C1 [Compound 453] | + (compound exhibited 0-25% inhibition at 0.3 μM)
10 | O=C(c1cccc(Cl)c1Cl)N1CCc2c(ncnc2NC(=O)C23CC4CC(CC(C4)C2)C3)C1 [Compound 454] | ++ (compound exhibited 25-50% inhibition at 0.3 μM)
11 | O=C(c1ccc2ccccc2c1)N1CCc2c(ncnc2NC(=O)C23CC4CC(CC(C4)C2)C3)C1 [Compound 460] | + (compound exhibited 0-25% inhibition at 0.3 μM)
12 | Cc1ccc(C(=O)N2CCc3c(ncnc3NC(=O)C34CC5CC(CC(C5)C3)C4)C2)cc1 [Compound 461] | + (compound exhibited 0-25% inhibition at 0.3 μM)
13 | Cc1cc(C(=O)N2CCc3c(ncnc3NC(=O)C34CC5CC(CC(C5)C3)C4)C2)c(C)o1 [Compound 463] | ++ (compound exhibited 25-50% inhibition at 0.3 μM)
14 | O=C(c1ccccc1Cl)N1CCc2c(ncnc2NC(=O)C23CC4CC(CC(C4)C2)C3)C1 [Compound 464] | ++ (compound exhibited 25-50% inhibition at 0.3 μM)
15 | O=C(c1ccno1)N1CCc2c(ncnc2NC(=O)C23CC4CC(CC(C4)C2)C3)C1 [Compound 466] | + (compound exhibited 0-25% inhibition at 0.3 μM)
16 | O=C(Cc1ccccc1Br)N1CCc2c(ncnc2NC(=O)C23CC4CC(CC(C4)C2)C3)C1 [Compound 470] | + (compound exhibited 0-25% inhibition at 0.3 μM)
17 | O=C(c1ccc2ccccc2n1)N1CCc2c(ncnc2NC(=O)C23CC4CC(CC(C4)C2)C3)C1 [Compound 471] | ++ (compound exhibited 25-50% inhibition at 0.3 μM)
18 | COc1ccc(C(=O)N2CCc3c(ncnc3NC(=O)C34CC5CC(CC(C5)C3)C4)C2)cc1F [Compound 475] | ++ (compound exhibited 25-50% inhibition at 0.3 μM)
19 | COc1ccc(C(=O)N2CCc3c(ncnc3NC(=O)C34CC5CC(CC(C5)C3)C4)C2)cc1OC [Compound 476] | ++ (compound exhibited 25-50% inhibition at 0.3 μM)
20 | O=C(c1cc(Cl)cc(Cl)c1)N1CCc2c(ncnc2NC(=O)C23CC4CC(CC(C4)C2)C3)C1 [Compound 479] | + (compound exhibited 0-25% inhibition at 0.3 μM)
21 | CS(=O)(=O)N1CCc2c(ncnc2NC(=O)C23CC4CC(CC(C4)C2)C3)C1 [Compound 480] | + (compound exhibited 0-25% inhibition at 0.3 μM)

Row | Compound | IL-1β % inhibition
22 | Cc1ccc(S(=O)(=O)N2CCc3c(ncnc3NC(=O)C34CC5CC(CC(C5)C3)C4)C2)cc1 [Compound 482] | ++ (compound exhibited 25-50% inhibition at 0.3 μM)
23 | O=C(Nc1ncnc2c1CCN(S(=O)(=O)c1ccc3ccccc3c1)C2)C12CC3CC(CC(C3)C1)C2 [Compound 483] | +++ (compound exhibited 50-75% inhibition at 0.3 μM)
24 | CCCS(=O)(=O)N1CCc2c(ncnc2NC(=O)C23CC4CC(CC(C4)C2)C3)C1 [Compound 485] | + (compound exhibited 0-25% inhibition at 0.3 μM)
25 | CCS(=O)(=O)N1CCc2c(ncnc2NC(=O)C23CC4CC(CC(C4)C2)C3)C1 [Compound 486] | + (compound exhibited 0-25% inhibition at 0.3 μM)
26 | COc1ccc(S(=O)(=O)N2CCc3c(ncnc3NC(=O)C34CC5CC(CC(C5)C3)C4)C2)cc1 [Compound 487] | ++ (compound exhibited 25-50% inhibition at 0.3 μM)
27 | O=C(Nc1ncnc2c1CCN(S(=O)(=O)c1ccc(Cl)cc1)C2)C12CC3CC(CC(C3)C1)C2 [Compound 488] | + (compound exhibited 0-25% inhibition at 0.3 μM)
28 | COc1ccc(S(=O)(=O)N2CCc3c(ncnc3NC(=O)C34CC5CC(CC(C5)C3)C4)C2)cc1OC [Compound 489] | +++ (compound exhibited 50-75% inhibition at 0.3 μM)
29 | O=C(Nc1ncnc2c1CCN(S(=O)(=O)c1ccc(F)cc1)C2)C12CC3CC(CC(C3)C1)C2 [Compound 490] | +++ (compound exhibited 50-75% inhibition at 0.3 μM)
30 | O=C(Nc1ncnc2c1CCN(S(=O)(=O)Cc1ccccc1)C2)C12CC3CC(CC(C3)C1)C2 [Compound 491] | + (compound exhibited 0-25% inhibition at 0.3 μM)
31 | O=C(Nc1ncnc2c1CCN(S(=O)(=O)c1cccc(C(F)(F)F)c1)C2)C12CC3CC(CC(C3)C1)C2 [Compound 492] | +++ (compound exhibited 50-75% inhibition at 0.3 μM)
32 | O=C(Nc1ncnc2c1CCN(S(=O)(=O)c1ccc(OC(F)(F)F)cc1)C2)C12CC3CC(CC(C3)C1)C2 [Compound 493] | ++ (compound exhibited 25-50% inhibition at 0.3 μM)
33 | CN1CCOc2cc(S(=O)(=O)N3CCc4c(ncnc4NC(=O)C45CC6CC(CC(C6)C4)C5)C3)ccc21 [Compound 494] | +++ (compound exhibited 50-75% inhibition at 0.3 μM)
34 | Cc1nn(C)c(Cl)c1S(=O)(=O)N1CCc2c(ncnc2NC(=O)C23CC4CC(CC(C4)C2)C3)C1 [Compound 495] | ++ (compound exhibited 25-50% inhibition at 0.3 μM)
35 | O=C(Nc1ncnc2c1CCN(S(=O)(=O)c1cccc(OC(F)(F)F)c1)C2)C12CC3CC(CC(C3)C1)C2 [Compound 497] | + (compound exhibited 0-25% inhibition at 0.3 μM)
36 | COc1cccc(S(=O)(=O)N2CCc3c(ncnc3NC(=O)C34CC5CC(CC(C5)C3)C4)C2)c1 [Compound 498] | + (compound exhibited 0-25% inhibition at 0.3 μM)
37 | Cc1nc(S(=O)(=O)N2CCc3c(ncnc3NC(=O)C34CC5CC(CC(C5)C3)C4)C2)cn1C [Compound 499] | + (compound exhibited 0-25% inhibition at 0.3 μM)
38 | N#Cc1ccc(S(=O)(=O)N2CCc3c(ncnc3NC(=O)C34CC5CC(CC(C5)C3)C4)C2)c(Cl)c1 [Compound 500] | +++ (compound exhibited 50-75% inhibition at 0.3 μM)
39 | O=C(Nc1ncnc2c1CCN(S(=O)(=O)c1ccccc1F)C2)C12CC3CC(CC(C3)C1)C2 [Compound 501] | ++ (compound exhibited 25-50% inhibition at 0.3 μM)
40 | Cc1noc(C)c1S(=O)(=O)N1CCc2c(ncnc2NC(=O)C23CC4CC(CC(C4)C2)C3)C1 [Compound 503] | + (compound exhibited 0-25% inhibition at 0.3 μM)
